Laboratory results reported in a melting point compilation (Tetko et al.).

CC(C)[C@@H](NC(=O)[C@@H](CSC(c1ccccc1)(c1ccccc1)c1ccccc1)NC(=O)[C@@H](C)NC(=O)C[C@H](O)/C=C/CCSC(c1ccccc1)(c1ccccc1)c1ccccc1)C(=O)NCC(=O)O
melting point: 191 to 193 °C

FC(F)(F)C(F)(F)C(F)(F)C(F)(F)C(F)(F)C(F)(F)CCc1ccc(P(c2ccc(CCC(F)(F)C(F)(F)C(F)(F)C(F)(F)C(F)(F)C(F)(F)F)cc2)c2ccc(CCC(F)(F)C(F)(F)C(F)(F)C(F)(F)C(F)(F)C(F)(F)F)cc2)cc1
melting point: 49.9 to 52.4 °C

O=C(CCS(=O)(=O)CCCl)OCC(COC(=O)CCS(=O)(=O)CCCl)(COC(=O)CCS(=O)(=O)CCCl)COC(=O)CCS(=O)(=O)CCCl
melting point: 68 to 69 °C

CC[C@H](C)CNC(=O)[C@@H](C[C@H](O)[C@H](CC1CCCCC1)NC(=O)[C@H](Cc1cscn1)NC(=O)[C@@H](CC(=O)N1CCOCC1)Cc1cccc2ccccc12)C(C)(C)O
melting point: 102 to 105 °C

CCCCCCCS(=O)(=O)c1cc2c3cc(S(=O)(=O)CCCCCCC)c(S(=O)(=O)CCCCCCC)cc3c3cc(S(=O)(=O)CCCCCCC)c(S(=O)(=O)CCCCCCC)cc3c2cc1S(=O)(=O)CCCCCCC
melting point: 256 to 258 °C

COc1c(Cl)nc(-c2ccc(Cl)c(OC)c2F)nc1Cl
melting point: 137 to 138 °C

NC(=O)c1c(I)c(C(=O)N(CC(O)CO)CC(O)CO)c(I)c(N(CC(O)CO)C(=O)CO)c1I (stereo not drawn)
melting point: 195 to 200 °C

CC(=O)N1C(C)(C)CC(OC(=O)C(Cc2cc(C(C)(C)C)c(O)c(C(C)(C)C)c2)(Cc2cc(C(C)(C)C)c(O)c(C(C)(C)C)c2)C(=O)OC2CC(C)(C)N(C(C)=O)C(C)(C)C2)CC1(C)C
melting point: 202 °C

CCN(CC)CCN=S(=O)(c1ccccc1)c1ccco1 (stereo not drawn)
melting point: 133 °C

CCCCCCOCC1CN(c2cc3c(cc2F)c(=O)c(C(=O)O)cn3CC)CCN1 (stereo not drawn)
melting point: 121 to 124 °C

[C-]#[N+]C1(C)Cc2ccccc2C(=C)c2ccccc21 (stereo not drawn)
melting point: 146 to 148 °C

COc1c(Oc2nc3ccccc3o2)c(C)c(C)n(Cc2ccccc2)c1=O
melting point: 197 to 198 °C

CCCCCCCCCCOc1cc2c(O)c(C(=O)OCC)cnc2cc1OCC
melting point: 86.5 °C

CCCCCCCCCCCCCCCCOC(=O)c1ccc(C(=O)N(CCCCCCCCCCCCCCCC)OCCCCCCCCCCCCCCCC)nc1
melting point: 93 to 95 °C

NC(=NO)c1ccc(Cl)cc1Cl
melting point: 149 to 151 °C

CC(C)(C)CC(C)(C)c1cc(-n2nc3ccc(-c4ccc(-c5ccc6nn(-c7cc(C(C)(C)CC(C)(C)C)cc(C(C)(C)c8ccccc8)c7O)nc6c5)cc4)cc3n2)c(O)c(C(C)(C)c2ccccc2)c1
melting point: 247 to 249 °C

NC(=O)c1cc(-c2ccccc2)c(=O)n2c1-c1sccc1CC2
melting point: 281 to 282 °C

CCCCc1ccc(C(=O)Nc2ccc(OC(=O)c3ccc(CCCC)cc3)c3c2C(=O)c2c(NC(=O)c4ccc(CCCC)cc4)cc(C)c(OC(=O)c4ccc(CCCC)cc4)c2C3=O)cc1
melting point: > 250 °C

CCCCC1(CC)CS(=O)(=O)c2ccc(N(C)C)cc2C(c2cccc(NC(=O)COCCOCCOCC(=O)NCc3ccc(C4C(CCC(O)c5ccccc5)C(=O)N4c4ccc(F)cc4)cc3)c2)C1O (stereo not drawn)
melting point: 120 °C

CS(=N)(=O)c1ccc([N+](=O)[O-])c(C(=O)C2C=CC(C(F)(F)F)=C(Oc3ccccc3)C2(Cl)[N+](=O)[O-])c1 (stereo not drawn)
melting point: 62 to 63 °C

CC1(C)CC(N(c2nc(N(C3CC(C)(C)N(O)C(C)(C)C3)C3CC(C)(C)N(O)C(C)(C)C3)nc(N(C3CC(C)(C)N(O)C(C)(C)C3)C3CC(C)(C)N(O)C(C)(C)C3)n2)C2CC(C)(C)N(O)C(C)(C)C2)CC(C)(C)N1O
melting point: 258 to 261 °C

CC(=O)OC(COc1ccc(C(C)(C)c2ccc(OCC(CN3C(=O)NC4(CC(C)(C)N(C(C)=O)C(C)(C)C4)C3=O)OC(C)=O)cc2)cc1)CN1C(=O)NC2(CC(C)(C)N(C(C)=O)C(C)(C)C2)C1=O (stereo not drawn)
melting point: 147 to 149 °C

CCCCCCCCCCCCCCCCCCOc1cc(OCCCCc2ccc3cc(OCc4ccccc4)c(OCc4ccccc4)cc3c2)cc(N(CC(=O)O)CC(=O)O)c1
melting point: 83 to 86 °C

CC(=O)OCCn1c([N+](=O)[O-])cnc1CO
melting point: 138 to 145 °C

COc1cc(OC)c(/C=C/C(c2ccc(OC)c(NC(N)=O)c2)S(=O)(=O)C(/C=C/c2c(OC)cc(OC)cc2OC)c2ccc(OC)c(NC(N)=O)c2)c(OC)c1 (stereo not drawn)
melting point: 218 to 220 °C

CCCC(=O)C(=CNc1ccc(COC(=O)c2ccccc2)cc1)C(=O)OCC
melting point: 73 to 75 °C

CCCCCCc1cc(S(C)(=O)=NS(=O)(=O)c2ccc(C)cc2)ccc1O (stereo not drawn)
melting point: 109 to 110 °C

CC(=O)OC1C(O)C(C)OC(OC2C(OC(=O)C3CCC4C(C3)OC3(CC(OC(=O)C=Cc5ccccc5)C(C)CO3)C43CO3)OC(C)C(O)C2OC(C)=O)C1O (stereo not drawn)
melting point: 125 to 127 °C

O=C(Nc1c(Cl)cncc1Cl)C(=O)c1cn(Cc2c(F)cccc2[N+](=O)[O-])c2c(O)cccc12
melting point: 308 to 310 °C

CCCc1c(CC[Si](Cl)(Cl)Cl)c(CC[Si](Cl)(Cl)Cl)c(CC[Si](Cl)(Cl)Cl)c(CC[Si](Cl)(Cl)Cl)c1CC[Si](Cl)(Cl)Cl
melting point: 211 to 216 °C

CCC1(CC)c2cc(-c3ccc(N(c4ccccc4)c4ccc(-c5ccc6c(c5)C(CC)(CC)c5cc(-c7nc8ccccc8s7)ccc5-6)cc4)cc3)ccc2-c2ccc(-c3nc4ccccc4s3)cc21
melting point: 257 to 262 °C

N=C(NC(=O)OCc1ccccc1)N(CCCC(NC(=O)C(Cc1ccccc1)NC(=O)c1ccccc1)C(=O)Oc1cccc2ccccc12)C(=O)OCc1ccccc1 (stereo not drawn)
melting point: 177 to 185 °C

CCc1cn(C2OC(CNC(=O)C(C)Oc3cc(OC)c(Br)cc3Br)C(OC(=O)C(NC(=O)OC(C)(C)C)C(C)C)C2F)c(=O)[nH]c1=O (stereo not drawn)
melting point: 101 to 111 °C

CCCCCCCCCCCCCCCCCCOc1cc(OCCCOc2ccccc2)cc(N(CC(=O)OCc2ccccc2)CC(=O)OCc2ccccc2)c1
melting point: 59 to 61 °C

O=C1COc2cc3c(cc2O1)C1(CO3)CN(Cc2cnccn2)c2ccccc21 (stereo not drawn)
melting point: 216 to 218 °C

O=C(O)CCC(Cc1cccc(Cl)c1)(C(=O)C=Cc1ccc(Cl)cc1)c1ccccc1 (stereo not drawn)
melting point: 137 to 139 °C

O=[N+]([O-])c1cc(Sc2ccc(-c3c(S(=O)c4ccc(Cl)c([N+](=O)[O-])c4-c4ccc(Sc5ccc(Cl)c([N+](=O)[O-])c5)cc4)ccc(Cl)c3[N+](=O)[O-])cc2)ccc1Cl
melting point: 144 to 146 °C

[C-]#[N+]c1c(C)cccc1C(C)(C)C
melting point: 60 to 62 °C

O=C(CCl)Nc1nc(-c2ccco2)c(C(=O)c2ccccn2)s1
melting point: 184 to 185 °C

O=C(O)c1ccc([Si](CCC(F)(F)C(F)(F)C(F)(F)C(F)(F)C(F)(F)C(F)(F)C(F)(F)C(F)(F)C(F)(F)C(F)(F)F)(CCC(F)(F)C(F)(F)C(F)(F)C(F)(F)C(F)(F)C(F)(F)C(F)(F)C(F)(F)C(F)(F)C(F)(F)F)CCC(F)(F)C(F)(F)C(F)(F)C(F)(F)C(F)(F)C(F)(F)C(F)(F)C(F)(F)C(F)(F)C(F)(F)F)cc1
melting point: 134 to 136 °C

CCCCCCCCCCCCCCCCCCOc1cc(OCCCCCc2cccc(OCc3ccccc3)c2OCc2ccccc2)cc(N(CC(=O)O)CC(=O)O)c1
melting point: 79 to 81 °C

Cc1cccc(-c2cc3ccccc3c(Cl)n2)n1
melting point: 142 to 144 °C

CC(=O)N(CC(CO)(CO)CN(Oc1c(I)c(C(=O)N(CCO)CCO)c(I)c(C(=O)N(CCO)CCO)c1I)C(C)=O)Oc1c(I)c(C(=O)N(CCO)CCO)c(I)c(C(=O)N(CCO)CCO)c1I
melting point: 198 °C

CCCCCCCCCCCCCCCCNc1ccc(C(=O)OCC(COC(=O)c2ccc(NCCCCCCCCCCCCCCCC)cc2)OC(=O)c2ccc(NCCCCCCCCCCCCCCCC)cc2)cc1
melting point: 117 to 118 °C

CC(C)(C)OC(=O)NCc1ccc(CNC(=O)N2CCN(C(=O)CN3CCC(=O)N(CC(=O)N4CCN(C(=O)NCc5ccc(CNC(=O)OC(C)(C)C)cc5)CC4)CCC3=O)CC2)cc1
melting point: 156 to 160 °C

CCC(COC(=O)CCc1cc(C(C)(C)C)c(O)c(C(C)(C)C)c1)(COC(=O)CCc1cc(C(C)(C)C)c(O)c(C(C)(C)C)c1)COC(=O)CCc1cc(C(C)(C)C)c(O)c(C(C)(C)C)c1
melting point: 66 to 79 °C

CCCCCCCCCCCCc1ccc(N=Nc2ccc(C(N)CCNC(=O)CCN(CCC(=O)NCCN(C)c3ccc(N=Nc4ccc(CCCCCCCCCCCC)cc4[N+](=O)[O-])cc3)c3ccc(N=Nc4ccc(CCCCCCCCCCCC)cc4[N+](=O)[O-])cc3)cc2)c([N+](=O)[O-])c1 (stereo not drawn)
melting point: 127 to 129 °C

COc1ccc(N2C(=O)C3Cc4[nH]cnc4CN3C2=O)cc1 (stereo not drawn)
melting point: 142 to 148 °C

CC(C)(C)OC(=O)N1CCN(c2ccc(C(=O)O)cc2)CC1
melting point: 195 °C

CC(=O)OCC1OC(SCCCCCCOC2CCC3(C)C(=CCC4C3CCC3(C)C(C(C)CCCC(C)C)CCC43)C2)C(OC(C)=O)C(OC(C)=O)C1OC(C)=O (stereo not drawn)
melting point: 103 to 104 °C

COc1cc(OC)c(/C=C/C(c2ccc(OC)c(NC(=O)c3cc([N+](=O)[O-])cc([N+](=O)[O-])c3)c2)S(=O)(=O)C(/C=C/c2c(OC)cc(OC)cc2OC)c2ccc(OC)c(NC(=O)c3cc([N+](=O)[O-])cc([N+](=O)[O-])c3)c2)c(OC)c1 (stereo not drawn)
melting point: 277 to 279 °C

CCCCCCCCCCCCCCCC(=O)OCC(COC(=O)CCCCCCCCCCCCCCC)OC(=O)CCCC(=O)Oc1cc(Cl)ccc1Oc1ccc(Cl)cc1Cl
melting point: 44 to 46 °C

CC(C)(C)c1cc(CCC(=O)OC2C(C)(C)C(OC(=O)CCc3cc(C(C)(C)C)c(O)c(C(C)(C)C)c3)C(C)(C)C(OC(=O)CCc3cc(C(C)(C)C)c(O)c(C(C)(C)C)c3)C2(C)C)cc(C(C)(C)C)c1O (stereo not drawn)
melting point: 105 to 115 °C

O=C(CC(=O)c1cc(F)c(F)cc1F)OCc1ccc(OCCCCCCCCCCC2c3c(c4ccccc4c4ccccc34)-c3c2c2ccccc2c2ccccc32)cc1
melting point: 58 to 60 °C

CC(C)n1c(CC[C@@H](O)C[C@@H](O)CC(=O)O)c(-c2ccc(F)cc2)c(-c2ccccc2)c1C(=O)NCc1cccc(C(=O)O)c1
melting point: 140 to 141 °C

NC(=O)c1cnn(-c2ncc(C(F)(F)F)cc2Cl)c1NC(=O)C1(F)CC1
melting point: 204 °C

COc1cccc(Sc2cc3c(cc2Sc2cccc(OC)c2)C(=O)c2c(c(O)c4cc(Sc5cccc(OC)c5)c(Sc5cccc(OC)c5)cc4c2O)C3=O)c1
melting point: 287 to 292 °C

CN=S(=O)(Cc1ccc(C(F)(F)F)nc1)c1nc(-c2ccc(OC)cc2)cs1 (stereo not drawn)
melting point: 158 to 161 °C
